One series relates to bone marrow (BM) blasts. In words: Clinical study of change in bone marrow blasts, BLC2 inhibitor naive vs prior-exposed patients. The series is classed as in vivo, human patients. From the text:
FIG. 1A is a graph showing the results of a clinical study for the efficacy of emavusertib (Compound 1) administration on reducing bone marrow (BM) blasts in patients with blood cancer. Blasts are immature white blood cells that are usually found in small numbers in healthy bone marrow. High levels of blasts circulating in the blood are associated with cancer. This clinical study measured the change in blast levels before and after receiving Compound 1 treatment. Here, the relative change in blast levels before and after Compound 1 is compared between patients who had previously received BLC2 inhibitors in prior treatment and patients who were naïve to BLC2 inhibitors. The comparison groups each contain 22 high risk myelodysplastic syndrome (hrMDS) patients and 10 acute myeloid leukemia (AML) patients.
FIG. 1B is a graph showing baseline and best post-treatment blast levels of the subjects in FIG. 1A. […] Each patient is shaded according to their diagnosis, with high-risk myelodysplastic syndrome (MDS) patients tending to have lower blast levels than acute myeloid leukemia (AML) patients.
To support the development of effective treatment regimens with Compound 1, a study was conducted to monitor bone marrow (BM) samples obtained from AML and high risk MDS patients with different prior histories of treatment.
• Pharmacokinetic parameters of Compound 1 measured by Cmax, Cmin, Tmax, AUC0-24, AUC0-inf, and T1/2 (time frame 24 months) • Clinical response in AML or hrMDS assessed as follows: • AML: • Proportion of patients who reach CR+CRh • Proportion of patients who reach CRi, or CR or CRh • hrMDS: overall response rate of CR+PR+mCR • Transfusion independence
This is a Phase 1, open-label dose escalation and cohort expansion study of Compound 1 as a monotherapy in patients with AML or MDS and in combination with AZA in treatment-naïve, adult patients with AML or hrMDS, after first line therapy.

Another series deals with AML and high-risk MDS. In words: Ongoing Phase 1 study in relapsed/refractory AML and high-risk MDS. The series is classed as in vivo, human patients. Particulars: patients with relapsed/refractory AML and high-risk MDS. As to the method:
To support the development of effective treatment regimens with Compound 1, a study was conducted to monitor bone marrow (BM) samples obtained from AML and high risk MDS patients with different prior histories of treatment. […]
• MTD (defined as the highest dose at which there is <33% dose-limiting toxicity rate in the first cycle of treatment in a minimum of 6 patients [time frame: 28 days]) • RP2D (determined by the Sponsor in consultation with the CSC, considering all aspects of safety, tolerability, biologic activity, pharmacokinetic and preliminary efficacy in the trial population [time frame: 24 months]) • Safety measured by adverse events, ECGs, chemistry and hematology laboratory values, vital signs, and physical examinations […]
• Pharmacokinetic parameters of Compound 1 measured by Cmax, Cmin, Tmax, AUC0-24, AUC0-inf, and T1/2 (time frame 24 months) • Clinical response in AML or hrMDS assessed as follows: • AML: • Proportion of patients who reach CR+CRh • Proportion of patients who reach CRi, or CR or CRh • hrMDS: overall response rate of CR+PR+mCR • Transfusion independence […]

Series [1] in a line: Study Compound 1-101 (safety, exposure, activity at 200 mg BID). The series is classed as in vivo. From the text: Three patients with AML or MDS will be enrolled at the designated dose. If none of the first 3 patients experience a dose-limiting toxicity during the first cycle, patients may be enrolled into the next higher dose level. If 1 patient out of the first 3 experiences a dose-limiting toxicity, the dose level may be expanded with an additional 3 patients.

Each structure is given as a SMILES string.

As for `Cc1cc(-c2nc(C(=O)Nc3cc4oc(N5CCOCC5)nc4nc3N3CC[C@@H](O)C3)co2)ccn1` [Compound 1], the “rate of response to Compound 1, as evidenced by reduced BM blast counts” value in the series on bone marrow (BM) blasts (AML and high risk MDS, no history of BLC2 inhibitor treatment vs prior exposure) is “higher rate of response to Compound 1, as evidenced by reduced BM blast counts in hematology, compared to patients who had prior exposure to a BLC2 inhibitor”. Further, the “decrease in bone marrow blast counts from baseline to best post-baseline” value in the series with bone marrow (BM) blasts (no prior vs prior BLC2 inhibitor exposure, hrMDS and AML patients, FIG. 1B) is “significantly higher decreases in bone marrow blast counts from baseline to best post-baseline compared to those subjects with prior BLC2 inhibitor exposure”. In addition, the “relative change in bone marrow blast levels before and after Compound 1” value in the series on bone marrow (BM) blasts (patients naive to BLC2 inhibitors (e.g., venetoclax) vs previously exposed, comparison groups each 22 hrMDS and 10 AML, FIG. 1A) was “significant reduction in blasts compared to those who had been previously exposed to BLC2 inhibitors”. In the series on AML and high-risk MDS, the clinical activity entry is “demonstrated clinical activity”. In series [1], the “biologic activity and clinical efficacy” value was “demonstrating signs of biologic activity and clinical efficacy”; the drug exposure entry was “capable of achieving relevant levels of drug exposure”; the “safety of starting dose” value is reported as “safe”.

Values taken from patent publication US20260315484A1, “METHODS OF TREATING CANCER IN BCL2 INHIBITOR NAIVE SUBJECTS” (Curis, Inc., priority 2023, published 2026).
